Assay results from patent publication US20110034385A1, “Compositions Useful for the Treatment of Diabetes and Other Chronic Disorder” (NATIONAL INSTITUTE OF IMMUNOLOGY, priority 2008, published 2011).

How the values were obtained:
[1] = system: rats with kaolin/carrageenan (KC) arthritis; test: Hot plate test in kaolin/carrageenan arthritis; assay type: in vivo, rat
Procedure: Male wistar rats, weighing 180-220 g were selected and fed ad libitum. After four days of acclimatization, the rats were divided into five groups. Group I—control, Group II—Ibuprofen (10 mg/kg b.wt.), Group III—Ibuprofen (50 mg/kg b.wt.), Group IV—Ibuprofen coupled to transthyretin (TTR) or GNNQQNY injected intraperitoneally and Group V—carrageenin control. Groups II-V was anesthetized with halothane and KC arthritis was induced by an intra-articular injection of a mixture of 3% kaolin and 3% carrageenan (0.1 ml in sterile saline) into the synovial cavity of right knee joint. The joint was then manipulated by rapid flexion and extension movements for 1 min. Half an hour after injection of kaolin/carrageenan, the animals were treated as indicated above, with group II and II receiving daily injections of Ibuprofen orally. In the hot plate test method, rats from each group were placed on an analgesiometer, at a temperature of 55° C., and the latency in licking their paw was determined with a stop watch, one hour after treatment on day one (FIG. 32a), and thereafter everyday for four days (FIG. 32b). A 90-s cut-off time was imposed to prevent tissue damage.

[2] = system: ovariectomized (OVX) rats; conditions: rat, in vivo
Procedure: 44 female Sprague-Dawley rats (Charles River Laboratory, Wilmington, Mass.), approximately 90 days of age with an average body weight of 230 g were grouped into four groups at the beginning of the study. All rats were anesthetized with an intraperitoneal injection of ketamine hydrochloride and xylazine at doses of 50 and 10 mg/kg body weight (BW), respectively. Bilateral ovariectomies were performed in three groups from a dorsal approach. All rats were housed individually at 25° C. with a 12 h light/12 h dark cycle. The food consumption of ovariectomized (OVX) rats was restricted to that of the control rats to minimize increase in the body weight associated with ovariectomy. All rats were treated for 8 weeks with vehicle or Human/salmon CT (Sigma) either intermittently by subcutaneous injection or continuously by Alzet osmotic minipumps (Model 2ML4; Alza Corp., Palo Alto, Calif.) containing 200 μl of either CT (4 μg/kg) or SCA (Supramolecular calcitonin assembly) (2 mg/ml) in 2% mannitol, designed to deliver the solutions at a constant rate of 2.5 μl/h for 28 days. The intermittent treatments started a day after surgery. The minipumps for continuous CT or Calcitonin SCA or vehicle treatments were implanted at the time of surgery (day 0) and replaced after 3 weeks in case of continuous CT and vehicle treatment. […] For subcutaneous injections of CT, the hormone was dissolved in a vehicle of 2% mannitol.
Half of the OVX rats from this group were injected subcutaneously on alternate days with 2% mannitol as a vehicle. The remaining OVX rats in this group were implanted subcutaneously with Alzet osmotic minipumps for continuous infusion of vehicle.
Each OVX rat of one group was injected subcutaneously on alternate days with salmon CT at a dose of 16 U/kg BW (4 μg/kg b wt), and the other was implanted subcutaneously with an Alzet osmotic minipump for continuous infusion of human CT. The daily dose delivered to each rat by the minipump was 8 U/kg BW (2 μg/kg BW), which was equivalent to the dose given to the preceding group through subcutaneous injections on alternate days (16 U/kg).
Serum samples were stored at −80° C. until analyzed for their CT concentration by immunoassay methods with a commercially available kit (Bio-Merica). […] Calcitonin in serum was measured by an immunoassay kit.
Data are expressed as the mean±standard deviation (SD) for each group. Statistical differences were evaluated by analysis of variance. P values<0.05 were considered to be significant.

[3] = system: MCF 7 cells; test: MTT cell proliferation assay; assay type: cell-based; conditions: 3 days after treatment
Procedure: Cells were plated in 24-well plates with 10,000 cells/well in regular DMEM media containing 10% FBS. All treatments were done in triplicates. Growth was measured 3 days after treatment. Growth was assayed by the MTT assay. A total of 50 μl of 5 mg/ml MTT solution in PBS was added to each well. After incubation for 4 h at 37° C., formazan crystals were lysed with 500 μl of solubilization solution (20% SDS, 50% DMSO). Absorbance was measured with a plate reader at 570 nm using a 670-nm differential filter.

[4] = system: STZ-induced diabetic rats; test: Blood glucose control in streptozotocin-induced diabetic rats; assay type: in vivo, rat
Procedure: Nine weeks old Male Wistar rats (Rattus norvegicus albinus, Rodentia mammalia) weighing 210±10 g were used. Rats were housed in commercially available polypropylene cages and maintained under controlled temperature conditions on a 12 h light-dark cycle and allowed to access food and water ad libitum.
Male Wistar Rats weighing 250-300 g were divided into four groups and blood glucose estimation was done using Roche Accu Check glucose strips. Rats were kept on fasting for 48 hours. 50 mg/kg b.wt of Streptozotocin prepared freshly in citrate buffer (pH 4.5) was administered intraperitoneally to 10-20 rats. Food was provided immediately and blood glucose levels were checked after three days. The animals were grouped according to their blood glucose level (group I: 250-350 mg/dl, group II: 350-450 mg/dl and group III: >450 mg/dL).
A group of 5 normal rats injected 100 μl of PBS, served as the non-diabetic control. Body weight and blood glucose levels, both pre-prandial after 8-10 hr fasting and post-prandial were checked initially daily and then with decreasing frequency.

[5] = system: STZ treated rats; test: Intraperitoneal glucose tolerance test (IPGTT); assay type: in vivo, rat
Procedure: The STZ treated (n=12) and normal rats (n=4) were kept on fasting for 12 hrs. Blood glucose levels were monitored as described above. For glucose tolerance test was done. […] Blood glucose levels were monitored at 0, 30, 90, 150, 270 and 330 min after treatment. Serum was isolated for various time points and a graph was plotted between blood glucose level and time. FIG. 12 provides blood glucose profile of Intraperitoneal Glucose Tolerance Test (IPGTT).

[6] = Serum insulin quantification by ELISA; conditions: in 30 min
Procedure: Serum was isolated from the blood samples collected and stored at −20° C. till further analysis.

[7] = system: Male wistar rats; test: Hyperglycemic clamp after treatment with SIA II; assay type: in vivo, rat; conditions: one week, one month and three month
Procedure: Male wistar rats were anesthetized (Isoflurane 2%) and a carotid and jugular catheter installed to allow blood withdrawal and glucose injections (20% glucose solution) to clamp blood glucose level at 600 mg/dL. Following a 12 hours fasting period, glucose was infused in all groups to make them hyperglycemic. This was followed by blood withdrawal at indicated time intervals, for blood glucose measurements and the rate of glucose infusion to retain them hyperglycemic were calculated. This procedure was repeated after one and three months of SIA II administration (FIG. 16 a-c).

[8] = system: insulin signaling cascade (PI3K, Akt, GSK3β, ERK1/2) in rat adipocytes; test: Western blot of insulin signaling cascade in cultured adipocytes; assay type: cell-based; conditions: compared to control
Procedure: Rat adipocytes were isolated and cultured according to the method described by Björntorp et al. (Björntorp, P., Karlsson, M., Pettersson, P. & Sypniewska, G. Differentiation and function of rat adipocyte precursor cells in primary culture. J. Lipid Res. 21, 714-723 (1987)). Male Wistar rats fed freely were sacrificed and epididymal fat tissue was dissected and collected in reagent A (HBSS, 100 U/ml penicillin, 100 μg/ml streptomycin and […] gentamycin). The tissue was washed properly in HBSS. Following this the tissue was cut and minced finely and transferred to a falcon, centrifuged at 200 g for 2 min. The layer of transparent oil was removed and the adipocyte cell layer (thick and dense) was added to three times the volume of reagent B (reagent A containing 0.1% BSA and 1 mg/ml Collagenase) in a flask. The flask was incubated at 37° C. for 60 min with continuous slow shaking. The reaction was stopped by addition of DMEM complete media (with HEPES 15 mM, glc, 0.1% BSA, 50 nM adenosine and 1% fetal bovine serum) three times the volume and incubated at room temperature for 5 min. […]
After incubation, the cells were collected in a falcon tube and centrifuged at 200 g for 10 min. […] Adipocytes treated with (a) PBS, insulin, SIA-II, insulin released from SIA-II, (b) serum as indicated, and analysed for insulin signaling.

[9] = system: STZ-induced diabetic rats; test: Clinical parameters for the evaluation of toxicity of SIA II; assay type: in vivo, rat; conditions: end of three month study
Description: Serum isolated from blood samples collected at the end of the three month study and subjected to various tests indicated in the Table. Results are mean±s.d. of three different experiments having n=4 animals in each group.

[10] = system: fat-fed/streptozotocin-diabetic rats; test: Type II diabetes model, fat-fed/streptozotocin-diabetic rats; assay type: in vivo, rat
Procedure: Male Wistar rats, 7 weeks of age, and weighing approximately 200 g, were used for all studies. […] After 2 weeks on either diet, animals (with the exception of non-injected controls) after an overnight fast were injected with STZ (50 mg/kg) into the tail vein via a temporary indwelling 24-gauge catheter. Animals had free access to food and water after the STZ injection, and both STZ-injected and non-injected animals were continued on their original diets (chow or fat) for the duration of the study.

[11] = system: STZ-induced diabetic rats; test: Clinical parameters for the evaluation of toxicity of SIA II; assay type: in vivo, rat
[12] = insulin: single dose of 4 IU/kg daily, SIA: single injection 200 μg

## CC(C)Cc1ccc(C(C)C(=O)O)cc1 (stereo not drawn) [Ibuprofen]
[1]; 10 mg/kg b.wt orally
  latency in licking paw (heat endured): up to 12 sec
[1]; 50 mg/kg b.wt orally
  latency in licking paw (heat endured): ≤ 17 s

## CC(C)C[C@H](NC(=O)[C@H](CCCCN)NC(=O)CNC(=O)[C@H](CC(C)C)NC(=O)[C@@H](NC(=O)[C@@H]1CSSC[C@H](N)C(=O)N[C@@H](CO)C(=O)N[C@@H](CC(N)=O)C(=O)N[C@@H](CC(C)C)C(=O)N[C@@H](CO)C(=O)N[C@@H]([C@@H](C)O)C(=O)N1)C(C)C)C(=O)N[C@@H](CO)C(=O)N[C@@H](CCC(N)=O)C(=O)N[C@@H](CCC(=O)O)C(=O)N[C@@H](CC(C)C)C(=O)N[C@@H](Cc1c[nH]cn1)C(=O)N[C@@H](CCCCN)C(=O)N[C@@H](CC(C)C)C(=O)N[C@@H](CCC(N)=O)C(=O)N[C@H](C(=O)N[C@@H](Cc1ccc(O)cc1)C(=O)N1CCC[C@H]1C(=O)N[C@@H](CCCNC(=N)N)C(=O)N[C@H](C(=O)N[C@@H](CC(N)=O)C(=O)N[C@H](C(=O)NCC(=O)N[C@@H](CO)C(=O)NCC(=O)N[C@H](C(=O)N1CCC[C@H]1C(N)=O)[C@@H](C)O)[C@@H](C)O)[C@@H](C)O)[C@@H](C)O [SCA]
[2]
  Calcitonin (serum): 19.1 ± 4.2
  antibody against salmon calcitonin: negligible
  serum levels of calcitonin: 0.019 ng/mL
  time depot keeps on releasing calcitonin: 6-8 weeks
  time serum calcitonin maintained at a higher level: up to 60 days

## IGF 1: Insulin like growth factor I, positive control for proliferation of MCF 7 cells
[3]
  proliferation of MCF 7 cells: mitogenic

## Insulin: free, non-supramolecularly organized insulin; bovine insulin 4 U/kg intraperitoneally
[4]; insulin intraperitoneally everyday
  blood glucose levels: 300 ± 100 mg/dL
[4]; [12]
  fasting blood glucose: 300 to 400 mg/dL
  non-fasting blood glucose: 350 to 450 mg/dL
[4]; standard insulin injection
  duration of action: 6 to 10 h
[5]; after glucose infusion 3 g/kg IP
  time for elevated blood glucose to return to pre challenged levels: ≤ 1.5 h
[5]; severe hyperglycemia
  onset of effect in IPGTT: ≤ 30 min
[6]
  serum bovine insulin in IPGTT: ~0.9 ng/mL
[7]
  rate of glucose infused for maintaining hyperglycemic state: decreases over time
[8]
  activation of ERK 1/2: significant activation
  phosphorylation of GSK3β: increased several fold
[9]; Single daily Insulin Injection
  Alkaline Phosphatase: 777.8 ± 89.4 U/L
  Bilirubin (Direct): 0.36 ± 0.08 mg/dL
  Bilirubin (Total): 0.40 ± 0.08 mg/dL
  Chloride: 165 ± 23 mEq/L
  Phosphorous: 6.5 ± 1.3 mEq/L
  SGOT: 355 ± 83 U/L
  SGPT: 86 ± 36 U/L
  Serum A/G ratio: 0.595
  Serum Albumin: 2.5 ± 0.21 g/dL
  Serum Creatinine: 1.01 ± 0.30 mg/dL
  Serum Globulin: 4.2 ± 0.18 g/dL
  Serum total proteins: 6.70 ± 0.21 g/dL
  Sodium: 200 ± 26 mEq/L
  Urea: 58.3 ± 9.2 mg/dL
  Uric Acid: 3.0 ± 0.81
[9]; Twice daily Insulin Injection
  Adipose Tissue: Decreased
  Alkaline Phosphatase: 489 ± 65 U/L
  Bilirubin (Direct): 0.25 ± 0.06 mg/dL
  Bilirubin (Total): 0.35 ± 0.1 mg/dL
  Chloride: 119 ± 26 mEq/L
  Phosphorous: 6.2 ± 0.95 mEq/L
  SGOT: 300 ± 56 U/L
  SGPT: 85 ± 15 U/L
  Serum A/G ratio: 0.955
  Serum Albumin: 3.2 ± 0.19 g/dL
  Serum Creatinine: 0.88 ± 0.21 mg/dL
  Serum Globulin: 3.35 ± 0.15 g/dL
  Serum total proteins: 5.55 ± 0.25 g/dL
  Sodium: 198 ± 45.5 mEq/L
  Urea: 60.1 ± 12.36 mg/dL
  Uric Acid: 3.1 ± 0.56
[3]
  proliferation of MCF 7 cells: does not cause proliferation of cells
[10]; 1 week
  B W: 261
  BGL: 420 mg/dL
  FFA: 1.9 ± 0.08 mmol/L
  Rat Insulin: 37.09 ± 4.7 μU/ml
  TG: 0.77 ± 0.05 mmol/L
[10]; 2 week
  B W: 263
  BGL: 401 mg/dL
  FFA: 2.1 ± 0.08 mmol/L
  Rat Insulin: 37.09 ± 4.7 μU/ml
  TG: 0.75 ± 0.05 mmol/L
[10]; 3 week
  B W: 269
  BGL: 390 mg/dL
  FFA: 1.8 ± 0.08 mmol/L
  Rat Insulin: 37.09 ± 4.7 μU/ml
  TG: 0.73 ± 0.05 mmol/L
[10]; 4 week
  BGL: 396 mg/dL
  FFA: 2.1 ± 0.08 mmol/L
  Rat Insulin: 37.09 ± 4.7 μU/ml
  TG: 0.76 ± 0.05 mmol/L
[10]; serum
  increase of TAGs and FFA levels in serum: up to 1.5 fold
[11]; Single daily Insulin Injection, end of three month study
  Adipose Tissue: Decreased
[11]; diabetic rats
  cataract formation: Development of cataract
